Assays:
[1] = human gut metagenome, 24 h, 2 µM
[2] = human gut metagenome, 24 h, 2 µM; remark: listed apart in the source
[3] = (§1) The drug is tested on WLS-310 corresponding to human gut metagenome with ENA study accession number: PRJEB37062 and ENA sample accession number: ERS12561785 for biotransformation under anaerobic condition. The drug concentrations were measured over 9 timepoints collected between 0 and 24 hours of incubation by liquid-chromatography-coupled mass spectrometry (LC–MS); conditions: 2 µM
[4] = as §1, with “Z-030” for “WLS-310”, “mouse” for “human”, “ERS12561829” for “ERS12561785”; conditions: 2 µM
[5] = as §1, with “Z-012” for “WLS-310”, “to” for “to human gut”, “ERS12561812” for “ERS12561785”; conditions: 2 µM
[6] = human gut metagenome, 24 h, 2 µM; remark: listed apart in the source
[7] = human gut metagenome, 24 h, 2 µM; remark: listed apart in the source
[8] = human gut metagenome, 24 h, 2 µM; remark: listed apart in the source
[9] = human gut metagenome, 24 h, 2 µM; remark: listed apart in the source
[10] = as §1, with “Z-019” for “WLS-310”, “rat” for “human”, “ERS12561818” for “ERS12561785”; conditions: 2 µM
[11] = human gut metagenome, 24 h, 2 µM; remark: listed apart in the source
[12] = human gut metagenome, 24 h, 2 µM; remark: listed apart in the source
[13] = as §1, with “WLS-039” for “WLS-310”, “ERS12561746” for “ERS12561785”; conditions: 2 µM
[14] = human gut metagenome, 24 h, 2 µM; remark: listed apart in the source
[15] = human gut metagenome, 24 h, 2 µM; remark: listed apart in the source
[16] = as §1, with “WLS-090” for “WLS-310”, “ERS12561753” for “ERS12561785”; conditions: 2 µM
[17] = as §1, with “Z-029” for “WLS-310”, “rat” for “human”, “ERS12561828” for “ERS12561785”; conditions: 2 µM
[18] = human gut metagenome, 24 h, 2 µM; remark: listed apart in the source
[19] = as §1, with “WLS-069” for “WLS-310”, “ERS12561748” for “ERS12561785”; conditions: 2 µM
[20] = human gut metagenome, 24 h, 2 µM; remark: listed apart in the source
Also: call rule not given here.

CN(C)CCOC(C)(c1ccccc1)c1ccccn1.O=C(O)CCC(=O)O (stereo not given) [DOXYLAMINE SUCCINATE]
Bacterial Biotransformation [1]: Compound NOT metabolized
Bacterial Biotransformation [2]: Compound NOT metabolized
Bacterial Biotransformation [3]: Compound NOT metabolized
Bacterial Biotransformation [4]: Compound NOT metabolized
Bacterial Biotransformation [5]: Compound NOT metabolized
Bacterial Biotransformation [6]: Compound NOT metabolized
Bacterial Biotransformation [7]: Compound NOT metabolized
Bacterial Biotransformation [8]: Compound NOT metabolized
Bacterial Biotransformation [9]: Compound NOT metabolized
Bacterial Biotransformation [10]: Compound NOT metabolized
Bacterial Biotransformation [11]: Compound NOT metabolized
Bacterial Biotransformation [12]: Compound NOT metabolized
Bacterial Biotransformation [13]: Compound NOT metabolized
Bacterial Biotransformation [14]: Compound NOT metabolized
Bacterial Biotransformation [15]: Compound NOT metabolized
Bacterial Biotransformation [16]: Compound NOT metabolized
Bacterial Biotransformation [17]: Compound NOT metabolized
Bacterial Biotransformation [18]: Compound NOT metabolized
Bacterial Biotransformation [19]: Compound NOT metabolized
Bacterial Biotransformation [20]: Compound NOT metabolized

Br.CN1CCC[C@@H]1Cc1c[nH]c2ccc(CCS(=O)(=O)c3ccccc3)cc12 [ELETRIPTAN HYDROBROMIDE]
Bacterial Biotransformation [1]: Compound metabolized
Bacterial Biotransformation [2]: Compound NOT metabolized
Bacterial Biotransformation [3]: Compound metabolized
Bacterial Biotransformation [4]: Compound NOT metabolized
Bacterial Biotransformation [5]: Compound NOT metabolized
Bacterial Biotransformation [6]: Compound metabolized
Bacterial Biotransformation [7]: Compound NOT metabolized
Bacterial Biotransformation [8]: Compound NOT metabolized
Bacterial Biotransformation [9]: Compound NOT metabolized
Bacterial Biotransformation [10]: Compound NOT metabolized
Bacterial Biotransformation [11]: Compound NOT metabolized
Bacterial Biotransformation [12]: Compound metabolized
Bacterial Biotransformation [13]: Compound NOT metabolized
Bacterial Biotransformation [14]: Compound NOT metabolized
Bacterial Biotransformation [15]: Compound NOT metabolized
Bacterial Biotransformation [16]: Compound metabolized
Bacterial Biotransformation [17]: Compound NOT metabolized
Bacterial Biotransformation [18]: Compound NOT metabolized
Bacterial Biotransformation [19]: Compound metabolized
Bacterial Biotransformation [20]: Compound metabolized

CCOc1ccc2nc(S(N)(=O)=O)sc2c1 [ETHOXZOLAMIDE]
Bacterial Biotransformation [1]: Compound NOT metabolized
Bacterial Biotransformation [2]: Compound NOT metabolized
Bacterial Biotransformation [3]: Compound NOT metabolized
Bacterial Biotransformation [4]: Compound NOT metabolized
Bacterial Biotransformation [5]: Compound NOT metabolized
Bacterial Biotransformation [6]: Compound metabolized
Bacterial Biotransformation [7]: Compound NOT metabolized
Bacterial Biotransformation [8]: Compound NOT metabolized
Bacterial Biotransformation [9]: Compound NOT metabolized
Bacterial Biotransformation [10]: Compound NOT metabolized
Bacterial Biotransformation [11]: Compound NOT metabolized
Bacterial Biotransformation [12]: Compound NOT metabolized
Bacterial Biotransformation [13]: Compound NOT metabolized
Bacterial Biotransformation [14]: Compound NOT metabolized
Bacterial Biotransformation [15]: Compound NOT metabolized
Bacterial Biotransformation [16]: Compound metabolized
Bacterial Biotransformation [17]: Compound NOT metabolized
Bacterial Biotransformation [18]: Compound NOT metabolized
Bacterial Biotransformation [19]: Compound NOT metabolized
Bacterial Biotransformation [20]: Compound metabolized

CCc1cccc2c3c([nH]c12)C(CC)(CC(=O)O)OCC3 (stereo not given) [ETODOLAC]
Bacterial Biotransformation [1]: Compound metabolized
Bacterial Biotransformation [2]: Compound NOT metabolized
Bacterial Biotransformation [3]: Compound metabolized
Bacterial Biotransformation [4]: Compound NOT metabolized
Bacterial Biotransformation [5]: Compound NOT metabolized
Bacterial Biotransformation [6]: Compound metabolized
Bacterial Biotransformation [7]: Compound NOT metabolized
Bacterial Biotransformation [8]: Compound metabolized
Bacterial Biotransformation [9]: Compound NOT metabolized
Bacterial Biotransformation [10]: Compound NOT metabolized
Bacterial Biotransformation [11]: Compound metabolized
Bacterial Biotransformation [12]: Compound metabolized
Bacterial Biotransformation [13]: Compound metabolized
Bacterial Biotransformation [14]: Compound metabolized
Bacterial Biotransformation [15]: Compound metabolized
Bacterial Biotransformation [16]: Compound metabolized
Bacterial Biotransformation [17]: Compound NOT metabolized
Bacterial Biotransformation [18]: Compound NOT metabolized
Bacterial Biotransformation [19]: Compound metabolized
Bacterial Biotransformation [20]: Compound metabolized
